Experiments:
Settings in all cases: 72 h
HepG2 [1] = assay: cell viability relative to DMSO; higher = less toxic
Vero E6 [2] = assay: as above
U2OS [3] = assay: as above
Caco-2 [4] = assay: as above
Calu-3 [5] = assay: as above
HepG2 [6] = assay: relative viability EC50 (midpoint between 100% and the lowest measured viability); higher = less toxic
Vero E6 [7] = assay: as above
U2OS [8] = assay: as above
Caco-2 [9] = assay: as above
Calu-3 [10] = assay: as above
HepG2 [11] = assay: drug sensitivity score (DSS) for viability; higher = more toxic; extreme values may be limits of the assay
Vero E6 [12] = assay: as above
U2OS [13] = assay: as above
Caco-2 [14] = assay: as above
Calu-3 [15] = assay: as above

Structure (SMILES)	cell viability (HepG2 [1]; 1 nM) [%]	cell viability (HepG2 [1]; 10 nM) [%]	cell viability (HepG2 [1]; 100 nM) [%]	cell viability (HepG2 [1]; 1000 nM) [%]	cell viability (HepG2 [1]; 10000 nM) [%]	cell viability (Vero E6 [2]; 1 nM) [%]	cell viability (Vero E6 [2]; 10 nM) [%]	cell viability (Vero E6 [2]; 100 nM) [%]	cell viability (Vero E6 [2]; 1000 nM) [%]	cell viability (Vero E6 [2]; 10000 nM) [%]	cell viability (U2OS [3]; 1 nM) [%]	cell viability (U2OS [3]; 10 nM) [%]	cell viability (U2OS [3]; 100 nM) [%]	cell viability (U2OS [3]; 1000 nM) [%]	cell viability (U2OS [3]; 10000 nM) [%]	cell viability (Caco-2 [4]; 1 nM) [%]	cell viability (Caco-2 [4]; 10 nM) [%]	cell viability (Caco-2 [4]; 100 nM) [%]	cell viability (Caco-2 [4]; 1000 nM) [%]	cell viability (Caco-2 [4]; 10000 nM) [%]	cell viability (Calu-3 [5]; 1 nM) [%]	cell viability (Calu-3 [5]; 10 nM) [%]	cell viability (Calu-3 [5]; 100 nM) [%]	cell viability (Calu-3 [5]; 1000 nM) [%]	cell viability (Calu-3 [5]; 10000 nM) [%]	relative viability EC50 (HepG2 [6]) [µM]	relative viability EC50 (Vero E6 [7]) [µM]	relative viability EC50 (U2OS [8]) [µM]	relative viability EC50 (Caco-2 [9]) [µM]	relative viability EC50 (Calu-3 [10]) [µM]	drug sensitivity score (HepG2 [11])	drug sensitivity score (Vero E6 [12])	drug sensitivity score (U2OS [13])	drug sensitivity score (Caco-2 [14])	drug sensitivity score (Calu-3 [15])
C[C@@H](CN)CC(=O)O [3-methyl-GABA]	96.1	90.5	100	92.4	99	100	94.2	103	92.8	101	102	101	99.3	103	94.5	85.9	94.9	84.6	101	88.8	95.5	104	93.4	98.3	90.9	> 10	> 10	> 10	> 10	> 10	0	0	0	0.1	0
Cc1ccc(S(=O)(=O)NCc2ccccc2)cc1 [BTS]	102	110	95.3	110	107	104	101	91.7	95.9	93.4	96.7	97.4	107	98	102	95.1	99.3	101	90	99.9	98.1	100	106	102	112	> 10	> 10	> 10	> 10	> 10	0	0	0	0	0
O=c1c(O)c(-c2cc(O)c(O)c(O)c2)oc2cc(O)cc(O)c12 [myricetin]	96.9	91.9	106	94.4	96.3	94.1	97.7	95.4	95.8	97.5	93.6	105	97.4	99.6	103	97.2	99.2	98.8	101	96	105	98.5	96	102	105	> 10	> 10	> 10	> 10	> 10	0	0	0	0	0
OCCC#Cc1nc(-c2ccc(F)cc2)c(-c2ccncc2)n1CCCc1ccccc1	90.4	99.5	105	99.6	93.9	92.5	99.7	87	85	100	95.9	92	94.7	90.1	79.7	98.4	106	91.6	91.6	78.6	101	100	83.6	90.2	79.7	> 10	> 10	> 10	> 10	> 10	0	0	1.1	1.2	2.2
COCCc1ccc(OCC(O)CNC(C)C)cc1 (stereo not given) [metoprolol]	112	79.4	122	79.7	93.6	97.7	97.1	96.1	93.6	96.2	103	109	99	108	104	102	136	91.8	110	94.4	93.1	106	93.2	101	98.7	> 10	> 10	> 10	> 10	> 10	0	0	0	0	0
O=C1C(O)=C(O)C(=O)C(O)=C1O [tetroquinone]	97.9	100	101	106	91.7	98.3	100	97.6	96.7	95.1	99.9	99.5	97.8	99.8	104	103	99.6	96.9	104	97.6	97.3	98.2	98.1	87.1	93.3	> 10	> 10	> 10	> 10	> 10	0	0	0	0	0
CN1CCN(CCCCN2C(=O)CN(/N=C/c3ccc(-c4ccc(Cl)cc4)o3)C2=O)CC1 [azimilide]	99.8	106	101	103	85.3	101	98.7	100	96.9	98.1	103	97.1	99.8	98.2	98.5	97.4	102	94.4	98.7	94.5	86.7	96.6	91	106	92.1	> 10	> 10	> 10	> 10	> 10	0.1	0	0	0	0
CCOc1ccc(-n2c([C@@H](C)N(Cc3cccnc3)C(=O)Cc3ccc(F)c(C(F)(F)F)c3)nc3ncccc3c2=O)cc1 (racemic)	105	100	97.9	108	93.7	96	97.2	98.6	103	105	104	96	96.2	99.2	95.9	103	97.6	99.3	99.9	90	93.8	91	92.8	95.2	88.4	> 10	> 10	> 10	> 10	> 10	0	0	0	0	0
O=C(O)c1ccccc1C(=O)Nc1ccc(S(=O)(=O)Nc2nccs2)cc1 [phthalylsulfathiazole]	87.5	107	115	111	112	92.2	98.9	94.9	94.5	108	97.9	98	102	96.8	99.7	106	93.9	94.1	102	93.7	105	86.8	106	107	107	> 10	> 10	> 10	> 10	> 10	0	0	0	0	0
NC(=O)c1ccc(-c2nc(-c3ccccn3)c(-c3ccc4c(c3)OCO4)[nH]2)cc1	107	93.6	103	96	83.9	98.3	92.4	96.1	97.8	105	91.2	96.6	96	97.1	92.4	89.3	106	92.5	106	101	92.2	95	91.9	110	103	> 10	> 10	> 10	> 10	> 10	0.7	0	0	0	0
Nc1ccccc1S(N)(=O)=O [2-aminobenzenesulfonamide]	99	99.5	87.1	94.1	102	99.5	98.2	101	98.9	93.7	103	105	96.8	98.4	90.5	95.3	99.4	99.4	95.5	101	90.9	108	101	104	80.5	> 10	> 10	> 10	> 10	> 10	0	0	0	0	0.4
CC(=O)N(c1onc(C)c1C)S(=O)(=O)c1ccc(N)cc1 [sulfisoxazole-acetyl]	96.9	105	114	103	97.4	104	107	103	96.9	98.8	101	97.5	101	97.7	98.7	109	106	110	102	90.9	96.7	102	93.6	102	102	> 10	> 10	> 10	> 10	> 10	0	0	0	0	0
c1ccc2c(-c3cnn4cc(-c5ccc(N6CCNCC6)cc5)cnc34)ccnc2c1	99.3	111	94.5	75.7	-0.1	90	102	98.1	71.5	-0.1	95.1	94.2	92.1	80.4	-0.1	107	87.7	120	85.9	11.4	95.8	98.6	112	93.9	0.4	1.57	1.44	1.75	1.94	2.69	9.3	9.7	8.7	7.2	6.4
CN1c2c([nH]c(N)nc2=O)NC[C@@H]1CNc1ccc(C(=O)N[C@@H](CCC(=O)O)C(=O)O)cc1 [metafolin]	102	89.8	105	110	108	96.1	91.6	96.3	83.2	104	94.9	100	92.5	105	101	95.4	90.3	85.3	98.1	102	91.1	106	105	96.5	96.9	> 10	> 10	> 10	> 10	> 10	0	0	0	0	0
CC1/C=C/C=C/C=C/C=C/C=C/C=C/C=C/C(OC2O[C@H](C)[C@@H](O)[C@H](N)[C@@H]2O)CC(O)C(C(=O)O)C(O)CC(=O)CC(O)CC(O)CC(O)CC(=O)CCCC(=O)CC(=O)OC1C(C)CC(C)C(O)CC(=O)c1ccc(N)cc1 (stereo not given in full) [candicidin]	109	96.4	103	103	98.6	101	104	96.7	104	77.2	105	99.9	101	101	96.8	82	90.8	87.1	92	77.1	101	102	102	104	97.5	> 10	> 10	> 10	> 10	> 10	0	0.6	0	0	0
CC(C)[C@H](NS(=O)(=O)c1ccc(-c2ccc(Br)cc2)cc1)C(=O)O	98.3	109	87.8	110	110	93.2	95.9	87.7	92.2	102	101	97.5	99.5	96.4	102	96.3	86.2	93.5	92.6	89.8	106	102	91.4	104	92.9	> 10	> 10	> 10	> 10	> 10	0	0	0	0	0
C[N+]1(C)CCc2cc3c(cc2[C@H]1[C@@H]1OC(=O)c2c1ccc1c2OCO1)OCO3 [bicuculline-methochloride-(-)]	101	98.7	93.9	92.8	108	98.6	97	99.2	103	100	95.1	99.9	99.2	98.9	100	101	118	98	81.9	97.3	89	104	85	88	110	> 10	> 10	> 10	> 10	> 10	0	0	0	2.5	0
Cc1nccc2[nH]c(=O)ccc12 [medorinone]	112	99.5	102	96.8	109	102	101	97	97.1	98.5	97.9	100	97.4	99.7	97.8	104	102	102	93.9	97.8	113	102	91	98.8	96.3	> 10	> 10	> 10	> 10	> 10	0	0	0	0	0
C=CC(=O)Nc1cc(Nc2nccc(-c3cn(C)c4ccccc34)n2)c(OC)cc1N(C)CCN(C)C [osimertinib]	99.6	98.8	104	82.4	6	95.9	93.8	90.4	57.7	0	95.7	99.2	92.3	83.6	5	82.7	97.2	94.2	72.6	9.1	92.6	92.9	72.2	36.7	0.7	1.8	1.19	1.86	1.44	0.374	8.1	10.4	8	8.8	15.8
Oc1ccc2c3c1O[C@H]1c4oc5ccccc5c4C[C@@]4(O)[C@@H](C2)N(CC2CC2)CC[C@]314 [naltriben]	102	120	93.5	99.7	99	90.9	101	93.3	96.4	108	101	101	100	101	99.8	91.7	91.9	102	98.6	86.5	105	85.1	105	87.7	99.5	> 10	> 10	> 10	> 10	> 10	0	0	0	0.3	0
OC[C@H]1NCC[C@@H](O)[C@@H]1O [fagomine]	98.9	97.4	93.3	90.2	94.6	95.6	93.5	93.1	94.5	92.7	97.9	100	93.8	97.1	94.8	89	91.9	93.8	87.2	87.9	111	103	97	104	99.8	> 10	> 10	> 10	> 10	> 10	0	0	0	0.3	0
C=C1/C(=C\C=C2/CCC[C@]3(C)[C@@H]([C@H](C)CCCC(C)(C)O)CC[C@@H]23)C[C@@H](O)C[C@@H]1O [calcitriol]	116	112	102	92.6	96.2	106	102	104	98.1	97.8	100	104	95.9	103	92.8	101	104	105	101	92.5	100	106	96.7	101	96.8	> 10	> 10	> 10	> 10	> 10	0	0	0	0	0

From the supplement of paper PMC13380429
